Experimental data taken from US20030036184A1 (priority 2000, published 2003).

How the values were obtained:
PDE7(101-450) = target: T1, PDE7(101-450) (Homo sapiens, UniProt Q13946); experiment: PDE assay for IC50 measurements (SPA, cell lysate enzyme); format: biochemical; conditions: for sensitivity of enzyme to inhibitor: PDE7(101-450) produced in Baculovirus or eucaryote
T1 construct: made in house; host or cells: CHO (EcRCHO) cells, transient transfection; crude lysate supernatant
Method: (§1) The cell lysates containing PDE7A1 (full length or the truncated forms) were used as enzyme source. PDE assays were performed in 96-well plates in a final volume of […] at pH 8 comprising: 2 μL of compound dissolved in DMSO at 8 different concentrations, 40 mM TRIS, 10 mM MgCl2, 50 nM [^3H]-cAMP (Amersham) and enzyme at the appropriate concentration. Plates were incubated for 10 min at 37° C. in a heater/shaker and stopped by addition of 20 μL Yttrium silicate beads (Scintillation Proximity Assay, Amersham). Enzyme activity was read on a Topcount reader (Packard). Substrate depletion never exceeded 15% of the initial amount. The given IC50s represent the concentration of compound leading to 50% inhibition of the cAMP hydrolysis versus control. They are calculated using a classical sigmoidal model with Hill slope fixed to 1.
(§2) The cell lysates containing recombinant PDE7A1 (full length or the truncated forms) were used as enzyme source. PDE assays were performed in 96-well plates in a final volume of 100 μL at pH 8 comprising: […] of compound dissolved in DMSO at 8 different concentrations, 40 mM TRIS, 10 mM MgCl2, 50 nM [^3H]-cAMP and enzyme at the appropriate concentration.
(§3) Plates were incubated for 10 min at 37° C. in a heater/shaker and stopped by addition of 20 μL Yttrium silicate beads (Scintillation Proximity Assay, Amersham).
(§4) Enzyme activity was determined by measuring the radioactivity on a Topcount reader (Packard).
(§5) Substrate depletion never exceeded 15% of the initial amount. The given IC50s represent the concentration of compound leading to 50% inhibition of the cAMP hydrolysis versus control. They are calculated using a classical sigmoidal model with Hill slope

[1] = target: T2, recombinant full length PDE7A1 (Homo sapiens, UniProt Q13946); experiment: as above; format: biochemical; conditions: for sensitivity of enzyme to inhibitor: full length PDE7A produced in Baculovirus or eucaryote
T2 construct: the full length PDE7A1 protein (1-483); made in house; host or cells: CHO (EcRCHO) cells, transient transfection, cytosol/lysate supernatant; Sf21/baculovirus also described
T2 sequence (Q13946 whole entry): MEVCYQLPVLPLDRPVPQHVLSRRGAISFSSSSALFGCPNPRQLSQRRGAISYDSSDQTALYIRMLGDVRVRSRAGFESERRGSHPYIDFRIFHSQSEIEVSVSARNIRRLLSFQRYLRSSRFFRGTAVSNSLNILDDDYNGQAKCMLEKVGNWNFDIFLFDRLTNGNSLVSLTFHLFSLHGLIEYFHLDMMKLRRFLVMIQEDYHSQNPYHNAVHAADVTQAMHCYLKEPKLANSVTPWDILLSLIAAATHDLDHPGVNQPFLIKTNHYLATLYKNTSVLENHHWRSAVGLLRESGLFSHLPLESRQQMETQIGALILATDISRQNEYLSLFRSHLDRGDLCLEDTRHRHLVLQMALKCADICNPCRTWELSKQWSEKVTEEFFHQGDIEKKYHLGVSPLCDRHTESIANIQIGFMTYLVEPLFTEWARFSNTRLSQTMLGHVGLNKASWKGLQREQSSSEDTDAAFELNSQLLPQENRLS
Method: as §1, §2, §3, §4, §5

PDE7A = PDE7A (Homo sapiens, UniProt Q13946); conditions: cited from earlier work
Chain of PDE7A (Q13946 whole entry, species assumed): as the sequence (Q13946 whole entry) above

PDE7(101-483) [2] = target: T3, PDE7(101-483) (Homo sapiens, UniProt Q13946); experiment: PDE assay for IC50 measurements (SPA, cell lysate enzyme); format: biochemical
T3 construct: this catalytic fragment (101-482) fragment was co-expressed; made in house; host or cells: CHO (EcRCHO) cells, transient transfection; crude lysate supernatant
Method: as §1, §2, §3, §4, §5

[3] = target: PDE7 mutant corresponding to the amino acids sequence 101-483 of the full length human PDE7A1 (human) (UniProt Q13946); experiment: cell-based or functional assay
recombinant PDE7A1 = target: T4, recombinant PDE7A1 (Homo sapiens, UniProt Q13946); experiment: cAMP hydrolysis in cytosol extract of transfected CHO cells, with or without rolipram; format: biochemical; conditions: rolipram 10 μM
T4 construct: the full length PDE7A1 protein (1-483); made in house; host or cells: CHO (EcRCHO) cells, transient transfection, cytosol/lysate supernatant; Sf21/baculovirus also described
T4 sequence (Q13946 whole entry): as above
From the text: (§6) The reaction mixtures were then applied to these columns.

PDE7(101-483) [4] = target: T3, PDE7(101-483); experiment: cAMP hydrolysis in cytosol extract of transfected CHO cells, with rolipram; format: biochemical; conditions: truncated PDE7 construct 101-483 in CHO; rolipram at 10 μM
Method: Three days before transfection, CHO cells were plated at a density of 2×10^6 cells per 150 cm^2 flask. Cells were transfected with 20 μg of endotoxin free plasmid DNA using Lipofectamine following the manufacturers instructions (Gibco BRL, Gaithersburg, Md.). After incubation for 48 hours, cells were washed twice with phosphate buffered saline (PBS), trypsinized, harvested by centrifugation and resuspended in 300 μL of PDE extraction buffer (Bis Tris 20 mM (pH 6.5), EDTA 10 mM, DTT 2.5 M) supplemented with a mixture of protease inhibitors at a final concentration of 2 mM benzamidine, 2 μg/ml soybean trypsin inhibitor, 50 μM PMSF and 100 μg/ml bacitracin. Cells were sonicated, centrifuged for 20 minutes at 14,000 g and the resultant supernatants were analyzed for cAMP phosphodiesterase activity.
Phosphodiesterase activities were assayed using a modification of the method described by Smith and collaborators (Manganellio et al., 1991) using the observation that 5′-nucleotides bind very strongly to aluma while the cyclic nucleotides are readily eluted at neutral or slightly alkaline pH. Assays were performed in 96 well plates at 37° C. in a total volume of 200 μl. […] The separated [^3H] cAMP was back-corrected for recovery using the separated and non-separated [^14C] values and expressed as a fraction of the total [^3H] cAMP to give the amount of the substrate hydrolyzed. […]

[5] = PDE catalytic activity of full length and truncated PDE7A1 expressed in CHO cells; format: biochemical; conditions: for level of PDE activity after expression in CHO cells (in words): cell cytosol, compared with full length PDE7A1 or PDE7Δ100; for increase in PDE catalytic activity compared to full length PDE7A1/PDE7A2 / phosphodiesterase catalytic activity relative to full length enzyme: expressed in CHO cells
Method: as §6
The resultant PDE activity was measured and compared to that for the full length coding region of PDE7A1 and non-transfected cells. […] The first 100 amino acids seem to have an influence on the catalytic activity of the expressed PDE7 enzyme.

[6] = PDE assay for Km measurements; format: biochemical; conditions: Km for cAMP
Method: The cell lysates containing PDE7A1 (full length or the truncated forms) were used as enzyme source. […] Substrate concentrations spanned a 15 nM-750 nM range. Plates were incubated for 10 min at 37° C. in a heater/shaker and stopped by addition of 20 μL Yttrium silicate beads (Scintillation Proximity Assay, Amersham). Enzyme activity was read on a Topcount reader (Packard). Substrate depletion never exceeded 15% of the initial amount. Saturation curves were then fitted with a classical sigmoidal model, Hill slope fixed to 1.
By performing kinetics studies and Km measurements as described above, the respective Km values of the full length PDE7A1 and the truncated 101-450 PDE7A1 recombinant proteins expressed in CHO cells have been determined and are shown in Table 1 below.
The Km for cAMP of the PDE7(101-450), PDE7(101-483), have been measured and compared to those of endogenously expressed PDE7 in human lymphocyte cell line (Molt4) and the full length wild type recombinant PDE7A1 (Table 1).

[7] = target: T5, catalytic fragment (101-482) (Homo sapiens, UniProt Q13946); experiment: Co-expression of the first 100 N-terminal amino acids with the catalytic fragment in CHO cells, PDE activity; format: cell-based
T5 construct: this catalytic fragment (101-482) fragment was co-expressed; 6xHis (N); expressed in transfected cells; host or cells: CHO cells co-transfected (lipofectamine) with two plasmids; PDE activity measured
Method: This part of the protein has been proposed to act as an auto-inhibitory domain. To establish if overexpression of the first 100 amino acids can inhibit PDE7 activity of the catalytic site, this catalytic fragment (101-482) fragment was co-expressed with the fragment 1-101 of a separate plasmid or with the plasmid pcDNA3 without this insert (negative control). Cells were transfected with 15 μg of each plasmid DNA. The catalytic site activity was inhibited of only around 40-50% in presence of fragment 1-101. (FIG. 12) The effect dose response has been checked to evaluate the involvement of the first 100 amino in PDE7 activity of the catalytic domain.
A dose effect curve has been done in the same coexpression conditions. 15 μg of the catalytic fragment (101-482) was coexpressed with increasing quantity of the fragment 1-101 of a separate plasmid. The DNA quantity was normalized for each transfection using an empty vector. (FIG. 13) A effect dose response of 100 N-terminal amino acids on PDE7 activity was observed (n=3). The catalytic domain activity was inhibited until 60% in presence of the fragment 1-100 at the highest concentration.

## CN/C(=N\c1ccc(C2=NNC(=O)CC2C)cc1)NC#N (stereo not drawn) [SKF-94836]
PDE7(101-450)
  sensitivity of enzyme to inhibitor: insensitive
[1]
  sensitivity of enzyme to inhibitor: insensitive
PDE7A
  sensitivity of PDE7A to standard selective inhibitors of other PDE families: insensitivity

## CCOC(=O)C1=C[C@]2(CC)CCCN3CCc4c(n1c1ccccc41)[C@@H]32 [Vinpocetin]
PDE7(101-450)
  sensitivity of enzyme to inhibitor: insensitive
[1]
  sensitivity of enzyme to inhibitor: insensitive
PDE7A
  sensitivity of PDE7A to standard selective inhibitors of other PDE families: insensitivity

## CC(C)Cn1c(=O)n(C)c(=O)c2[nH]cnc21 [IBMX, 3 isobutyl-1-methyl xanthine]
PDE7(101-450); PDE7(101-450)
  IC50: 13 to 14 µM
PDE7(101-483) [2]
  IC50: 13 to 14 µM
[1]; recombinant full length PDE7A1
  IC50: 13 to 14 µM

## first N-terminal 100 amino acids of the full length human PDE7A1 (from UniProt Q13946 1-100)
[3]
  PDE7 catalytic domain activity in CHO cells, 15 µg catalytic fragment plasmid with increasing quantity of fragment 1-101 plasmid, percent inhibition at the highest concentration: 60%
  PDE7 catalytic site activity in lysates of co-transfected CHO cells (15 µg of each plasmid), percent inhibition: 40 to 50%

## CCCOc1ccccc1-c1nc2nn[nH]c2c(=O)[nH]1 [Zaprinast]
PDE7(101-450)
  sensitivity of enzyme to inhibitor: insensitive
[1]
  sensitivity of enzyme to inhibitor: insensitive
PDE7A
  sensitivity of PDE7A to standard selective inhibitors of other PDE families: insensitivity

## COc1ccc(C2CNC(=O)C2)cc1OC1CCCC1 (stereo not drawn) [rolipram]
PDE7(101-450)
  sensitivity of enzyme to inhibitor: insensitive
[1]
  sensitivity of enzyme to inhibitor: insensitive
Recombinant PDE7A1
  sensitivity of increase in cAMP activity above basal to rolipram: insensitive
PDE7(101-483) [4]
  sensitivity of PDE activity to rolipram: insensitive

## Cc1[nH]c(=O)c(C#N)cc1-c1ccncc1 [milrinone]
PDE7A
  sensitivity of PDE7A to standard selective inhibitors of other PDE families: insensitivity

B1: PDE7A;101-430: truncated human PDE7A1, amino acids 101-430 (protein, UniProt Q13946 101-430, looked up, fragment)
chain: VSVSARNIRRLLSFQRYLRSSRFFRGTAVSNSLNILDDDYNGQAKCMLEKVGNWNFDIFLFDRLTNGNSLVSLTFHLFSLHGLIEYFHLDMMKLRRFLVMIQEDYHSQNPYHNAVHAADVTQAMHCYLKEPKLANSVTPWDILLSLIAAATHDLDHPGVNQPFLIKTNHYLATLYKNTSVLENHHWRSAVGLLRESGLFSHLPLESRQQMETQIGALILATDISRQNEYLSLFRSHLDRGDLCLEDTRHRHLVLQMALKCADICNPCRTWELSKQWSEKVTEEFFHQGDIEKKYHLGVSPLCDRHTESIANIQIGFMTYLVEPLFTEWAR
modifications: PDE7A1
[5]
  level of PDE activity after expression in CHO cells (in words): no detectable increase

B2: PDE7A;101-450: truncated human PDE7A1, amino acids 101-450; positions 45-394 of SEQ ID No1 (protein, listed as Homo sapiens)
chain: VSVSARNIRRLLSFQRYLRSSRFFRGTAVSNSLNILDDDYNGQAKCMLEKVGNWNFDIFLFDRLTNGNSLVSLTFHLFSLHGLIEYFHLDMMKLRRFLVMIQEDYHSQNPYHNAVHAADVTQAMHCYLKEPKLANSVTPWDILLSLIAAATHDLDHPGVNQPFLIKTNHYLATLYKNTSVLENHHWRSAVGLLRESGLFSHLPLESRQQMETQIGALILATDISRQNEYLSLFRSHLDRGDLCLEDTRHRHLVLQMALKCADICNPCRTWELSKQWSEKVTEEFFHQGDIEKKYHLGVSPLCDRHTESIANIQIGFMTYLVEPLFTEWARFSNTRLSQTMLGHVGLNKAS
[6]
  Km: 0.07 µM
[6]; Table 1
  Km: 0.074 µM
[5]
  level of PDE activity after expression in CHO cells (in words): equivalent to that observed for PDE7Δ100
  increase in PDE catalytic activity compared to full length PDE7A1/PDE7A2: about 15 fold
  phosphodiesterase catalytic activity relative to full length enzyme: about 15 times

B3: PDE7A;101-420: truncated human PDE7A1, amino acids 101-420 (protein, UniProt Q13946 101-420, looked up, fragment)
chain: VSVSARNIRRLLSFQRYLRSSRFFRGTAVSNSLNILDDDYNGQAKCMLEKVGNWNFDIFLFDRLTNGNSLVSLTFHLFSLHGLIEYFHLDMMKLRRFLVMIQEDYHSQNPYHNAVHAADVTQAMHCYLKEPKLANSVTPWDILLSLIAAATHDLDHPGVNQPFLIKTNHYLATLYKNTSVLENHHWRSAVGLLRESGLFSHLPLESRQQMETQIGALILATDISRQNEYLSLFRSHLDRGDLCLEDTRHRHLVLQMALKCADICNPCRTWELSKQWSEKVTEEFFHQGDIEKKYHLGVSPLCDRHTESIANIQIGFMTYL
modifications: PDE7A1
[5]
  level of PDE activity after expression in CHO cells (in words): no detectable increase

B4: fragment 1-101: first N-terminal 100 amino acids of the full length human PDE7A1 (protein, UniProt Q13946 1-100, looked up, fragment)
chain: MEVCYQLPVLPLDRPVPQHVLSRRGAISFSSSSALFGCPNPRQLSQRRGAISYDSSDQTALYIRMLGDVRVRSRAGFESERRGSHPYIDFRIFHSQSEIE
modifications: PDE7A1
notes: first N-terminal 100 amino acids of the full length human PDE7A1
[7]; co-expression, 15 μg of each plasmid DNA
  inhibition of catalytic site activity: 40-50%
[7]; dose effect curve, fragment at the highest concentration, n=3
  inhibition of catalytic domain activity: ≤ 60%

B5: PDE7Δ100: human PDE7A1 construct which lacks the first 100 amino acids; positions 45-427 of SEQ ID No1 (protein)
chain: VSVSARNIRRLLSFQRYLRSSRFFRGTAVSNSLNILDDDYNGQAKCMLEKVGNWNFDIFLFDRLTNGNSLVSLTFHLFSLHGLIEYFHLDMMKLRRFLVMIQEDYHSQNPYHNAVHAADVTQAMHCYLKEPKLANSVTPWDILLSLIAAATHDLDHPGVNQPFLIKTNHYLATLYKNTSVLENHHWRSAVGLLRESGLFSHLPLESRQQMETQIGALILATDISRQNEYLSLFRSHLDRGDLCLEDTRHRHLVLQMALKCADICNPCRTWELSKQWSEKVTEEFFHQGDIEKKYHLGVSPLCDRHTESIANIQIGFMTYLVEPLFTEWARFSNTRLSQTMLGHVGLNKASWKGLQREQSSSEDTDAAFELNSQLLPQENRLS
modifications: left off: small tags and cut ends
[6]; Table 1
  Km: 0.052 µM
[5]; CHO cells
  increase in PDE catalytic activity compared to mock transfected cells: 8 fold
[5]
  level of PDE activity after expression in CHO cells (in words): Highest levels of PDE activity
  increase in PDE catalytic activity compared to full length PDE7A1/PDE7A2: 15 fold
  phosphodiesterase catalytic activity relative to full length enzyme: about 15 times
